# Results taken from paper PMC4306533, “Distinct Features of Cap Binding by eIF4E1b Proteins” (Journal of Molecular Biology, 2015).
# Where two headings read alike, the source gives them in different places.
# Columns and labels:
# [1] = target: T1, heIF4E1a (Homo sapiens, UniProt P06730); design: method as in PMID 17369309; conditions: equilibrium association constant; buffer without glycerol; footnote b; cited from earlier work
# T1 construct: made in house; host or cells: E. coli Rosetta2(DE3)
# [2] = target: T2, heIF4E1b (Homo sapiens, UniProt A6NMX2); test: time-synchronized fluorescence titration of cap analogue binding; conditions: for Kas − glycerol heIF4E1b: equilibrium association constant, buffer without glycerol
# T2 construct: made in house; host or cells: E. coli Rosetta2(DE3)
# T2 sequence (A6NMX2 1-242): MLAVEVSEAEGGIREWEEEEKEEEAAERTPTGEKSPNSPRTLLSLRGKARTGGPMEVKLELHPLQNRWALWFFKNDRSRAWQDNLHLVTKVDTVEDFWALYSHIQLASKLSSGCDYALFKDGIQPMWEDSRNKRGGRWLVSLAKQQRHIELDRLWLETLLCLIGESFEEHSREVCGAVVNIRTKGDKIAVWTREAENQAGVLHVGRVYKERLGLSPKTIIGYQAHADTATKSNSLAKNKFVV
# Excerpt: (§1) The time-synchronized fluorescence titration method, widely used to determine the affinity constants of cap–eIF4E complexes [[20,22–26]], measures the quenching of the intrinsic fluorescence of tryptophan residues due to cap binding (Fig. S2). Knowledge of the equilibrium association constant Kas enables the calculation of the free-energy changes involved in the interaction between eIF4E and ligand, according to the standard equation ΔG° = − RTlnKas.
# (§2) For human eIF4E1a and eIF4E1b and also for Xenopus eIF4E1a and its mutated forms, measurements were carried out using 0.1 μM protein in 50 mM Hepes/KOH (pH 7.2), 134.5 mM KCl, 0.5 mM EDTA and 1 mM DTT. For Xenopus eIF4E1b(ΔN27), the concentration was 0.2 μM and glycerol was added to the buffer to 10% (v/v) final concentration. […] Fluorescence of measured samples was excited at 280 nm (2.5 nm bandwidth) and detected at 337 nm or 330 nm (4 nm bandwidth), thus reducing the signal originated from the free cap analogues. Measurements were carried out on a LS-55 spectrofluorometer (Perkin Elmer Co.) using freshly prepared proteins, and the fluorescence intensities were corrected for sample dilution and the inner filter effect.
# (§3) Equilibrium association constants (Kas) were determined by fitting the theoretical dependence of fluorescence intensity on the total concentration of the cap analogue to the experimental data points, according to the equation described previously (see Ref. [22] and Fig. S2c).
# (§4) The final Kas was calculated as a weighted average of 2–6 independent titrations with the weights taken as the reciprocal of the numerical standard deviation squared. Numerical, nonlinear least-squares regression analysis was performed using Origin 6.0 (Microcal Software Inc.). Obtained association constants were used to determine the Gibbs free energy according to the standard equation ΔG° = − RTlnKas.
# [3] = tested on: XeIF4E1a; test: as above; design: species or system Xenopus laevis; conditions: without glycerol
# Excerpt: as §1, §2, §3, §4
# [4] = tested on: heIF4E1b; test: as above; design: species or system human; conditions: for Ratio Kas (h4E1a) to Kas (h4E1b): without glycerol
# Excerpt: as §1, §2, §3, §4
# [5] = target: T3, XeIF4E1a (Xenopus laevis, UniProt P48597); test: as above; conditions: for Kas + glycerol XeIF4E1a / Kas − glycerol XeIF4E1a: equilibrium association constant; for Kas + glycerol XeIF4E1a / ΔΔG^o + glycerol XeIF4E1a: 10% glycerol; for Kas − glycerol XeIF4E1a: buffer without glycerol; for ΔΔG^o − glycerol XeIF4E1a: without glycerol
# T3 construct: made in house; host or cells: E. coli Rosetta2(DE3)
# Excerpt: as §1, §2, §3, §4
# [6] = tested on: in vitro translation; design: method as in PMID 10387101; conditions: Cai et al.; read-out: IC50 (inhibitory potency); cited from earlier work
# [7] = target: T4, X4E1a4 (E101S/K102R/S195A/M82S) (Xenopus laevis, UniProt P48597, E101S/K102R/M82S/S195A); test: fluorescence titration, XeIF4E1a mutant; format: binding; conditions: mutant (E101S/K102R/S195A/M82S) of XeIF4E1a
# T4 construct: made in house; host or cells: E. coli Rosetta2(DE3)
# Excerpt: (§5) We tested the effect on cap-binding activity of these positions in the fluorescence assay with six mutated recombinant versions of Xenopus eIF4E1a (Fig. S4). The amino acids were introduced in XeIF4E1a sequentially in the order: E101S/K102R/S195A/M82S/T206L/T207S (numbering of the XeIF4E1a sequence is shifted backward by 4 amino acids relative to XeIF4E1b). […] The biggest contribution to the weaker cap binding of XeIF4E1a, in each case about 20%, resulted from changing Glu101 to Ser and Thr206 to Leu coupled with Thr207 to Ser, with the remaining mutations having only minor effects. […] Glu101 is a solvent-accessible amino acid and is proximal to Trp98 in the S3-S4 loop. […] Attenuation of the cap-binding affinity of XeIF4E1a resulting from mutating Thr206 and Thr207 is consistent with our results mentioned above showing significant influence of C-terminal loop residues on binding phosphate and the second nucleotide.
# (§6) For human eIF4E1a and eIF4E1b and also for Xenopus eIF4E1a and its mutated forms, measurements were carried out using 0.1 μM protein in 50 mM Hepes/KOH (pH 7.2), 134.5 mM KCl, 0.5 mM EDTA and 1 mM DTT. For Xenopus eIF4E1b(ΔN27), the concentration was 0.2 μM and glycerol was added to the buffer to 10% (v/v) final concentration. […] The gradually increasing concentration of cap analogue quenches protein fluorescence without shifting the spectrum maximum, while at high concentrations, the fluorescence signal of free cap analogue dominates over the fluorescence from other solution components including free eIF4E and eIF4E in complex with cap (Fig. S2a). Fluorescence of measured samples was excited at 280 nm (2.5 nm bandwidth) and detected at 337 nm or 330 nm (4 nm bandwidth), thus reducing the signal originated from the free cap analogues. Measurements were carried out on a LS-55 spectrofluorometer (Perkin Elmer Co.) using freshly prepared proteins, and the fluorescence intensities were corrected for sample dilution and the inner filter effect.
# (§7) Equilibrium association constants (Kas) were determined by fitting the theoretical dependence of fluorescence intensity on the total concentration of the cap analogue to the experimental data points, according to the equation described previously (see Ref. [22] and Fig. S2c). […] Along with Kas and the concentration of the active protein [P0^act], other parameters such as fL and ∆f = fPact − fPL are also gained from the fit, where fL represents the fluorescence efficiency of free cap analogue and ∆f represents the difference between the fluorescence efficiencies of the apo-protein and the complex (Fig. S2c).
# as §4
# [8] = target: T5, X4E1a6 (E101S/K102R/S195A/M82S/T206L/T207S) (Xenopus laevis, UniProt P48597, E101S/K102R/M82S/S195A/T206L/T207S); test: fluorescence titration, XeIF4E1a mutant; format: binding; conditions: for Kas X4E1a6: mutant (E101S/K102R/S195A/M82S/T206L/T207S) of XeIF4E1a
# T5 construct: made in house; host or cells: E. coli Rosetta2(DE3)
# Excerpt: as §5, §6, §7, §4
# [9] = target: T6, X4E1a3 (E101S/K102R/S195A) (Xenopus laevis, UniProt P48597, E101S/K102R/S195A); test: fluorescence titration, XeIF4E1a mutant; format: binding; conditions: mutant (E101S/K102R/S195A) of XeIF4E1a
# T6 construct: made in house; host or cells: E. coli Rosetta2(DE3)
# Excerpt: as §5, §6, §7, §4
# [10] = target: T1, heIF4E1a; test: time-synchronized fluorescence titration of cap analogue binding; conditions: for ΔΔG^o − glycerol heIF4E1a: without glycerol; for Kas − glycerol heIF4E1a: equilibrium association constant, buffer without glycerol
# Excerpt: as §1, §2, §3, §4
# [11] = tested on: XeIF4E1bΔN27; test: as above; design: species or system Xenopus laevis; conditions: for Kas + glycerol XeIF4E1bΔN27: equilibrium association constant
# Excerpt: as §1, §2, §3, §4
# [12] = target: T7, X4E1a2 (E101S/K102R) (Xenopus laevis, UniProt P48597, E101S/K102R); test: fluorescence titration, XeIF4E1a mutant; format: binding; conditions: mutant (E101S/K102R) of XeIF4E1a
# T7 construct: made in house; host or cells: E. coli Rosetta2(DE3)
# Excerpt: as §5, §6, §7, §4
# [13] = target: T8, X4E1a1’ (K102R) (Xenopus laevis, UniProt P48597, K102R); test: fluorescence titration, XeIF4E1a mutant; format: binding; conditions: mutant (K102R) of XeIF4E1a
# T8 construct: made in house; host or cells: E. coli Rosetta2(DE3)
# Excerpt: as §5, §6, §7, §4
# [14] = target: T9, X4E1a1 (E101S) (Xenopus laevis, UniProt P48597, E101S); test: fluorescence titration, XeIF4E1a mutant; format: binding; conditions: mutant (E101S) of XeIF4E1a
# T9 construct: made in house; host or cells: E. coli Rosetta2(DE3)
# Excerpt: as §5, §6, §7, §4
# T4 sequence (P48597 whole entry M82S/E101S/K102R/S195A): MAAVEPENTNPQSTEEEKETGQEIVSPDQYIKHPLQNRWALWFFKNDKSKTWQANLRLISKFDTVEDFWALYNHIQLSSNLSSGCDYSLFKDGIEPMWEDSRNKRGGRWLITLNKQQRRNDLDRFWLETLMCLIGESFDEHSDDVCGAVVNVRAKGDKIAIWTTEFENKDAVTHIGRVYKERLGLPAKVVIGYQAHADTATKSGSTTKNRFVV
# T5 sequence (P48597 whole entry M82S/E101S/K102R/S195A/T206L/T207S): as the sequence (P48597 whole entry M82S/E101S/K102R/S195A) above, with T206L, T207S counted along it
# T3 sequence (P48597 whole entry): as the sequence (P48597 whole entry M82S/E101S/K102R/S195A) above, with S82M, S101E, R102K, A195S counted along it
# T6 sequence (P48597 whole entry E101S/K102R/S195A): as the sequence (P48597 whole entry M82S/E101S/K102R/S195A) above, with S82M counted along it
# T1 sequence (P06730 whole entry): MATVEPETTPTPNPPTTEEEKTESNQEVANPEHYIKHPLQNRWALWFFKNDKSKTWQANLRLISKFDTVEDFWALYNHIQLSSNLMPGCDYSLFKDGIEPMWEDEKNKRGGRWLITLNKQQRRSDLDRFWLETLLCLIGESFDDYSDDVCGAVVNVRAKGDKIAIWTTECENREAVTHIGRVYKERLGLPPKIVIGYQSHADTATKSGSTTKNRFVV
# T8 sequence (P48597 whole entry K102R): as the sequence (P48597 whole entry M82S/E101S/K102R/S195A) above, with S82M, S101E, A195S counted along it
# T7 sequence (P48597 whole entry E101S/K102R): as the sequence (P48597 whole entry M82S/E101S/K102R/S195A) above, with S82M, A195S counted along it
# T9 sequence (P48597 whole entry E101S): as the sequence (P48597 whole entry M82S/E101S/K102R/S195A) above, with S82M, R102K, A195S counted along it
Compound,Kas − glycerol heIF4E1a [1],Kas − glycerol heIF4E1b [2] [μM^− 1],Ratio Kas (h4E1a) to Kas (X4E1a) [3],Ratio Kas (h4E1a) to Kas (h4E1b) [4],Kas + glycerol XeIF4E1a [5] [μM^− 1],Kas − glycerol XeIF4E1a [5] [μM^− 1],Kas X4E1a4 [7] [µM⁻¹],Kas X4E1a6 [8] [µM⁻¹],Kas X4E1a3 [9] [µM⁻¹],Ratio Kas (X4E1a) to Kas (X4E1bΔN27) ([11]; 10% glycerol),Kas + glycerol XeIF4E1bΔN27 ([11]; 10% glycerol) [μM^− 1],other results
"Nc1nc2c(ncn2[C@@H]2O[C@H](COP(=O)(O)OP(=O)(O)OP(=O)(O)O)[C@@H](O)[C@H]2O)c(=O)[nH]1 [GTP, reference compound]",0.027 ± 0.001 ^b μM^− 1,0.159 ± 0.040,0.87,0.17,0.055 ± 0.021,0.031 ± 0.006,,,,,,fold higher affinity of human eIF4E1b than eIF4E1a ([4]; human proteins): approximately 5 fold
Nc1nc2c(c(=O)[nH]1)n(Cc1ccc(Cl)cc1)c[n+]2[C@@H]1O[C@H](COP(=O)([O-])OP(=O)(O)O)[C@@H](O)[C@H]1O [p-Cl-bn^7GDP],,,,,,,,,,,,IC50 [6]: 6.76 µM
Cn1c[n+]([C@@H]2O[C@H](COP(=O)(O)OP(=O)(O)OP(=O)(O)OC[C@H]3O[C@@H](n4cnc5c(N)ncnc54)[C@H](O)[C@@H]3O)[C@@H](O)[C@H]2O)c2nc(N)[nH]c(=O)c21 [m^7GpppA],3.97 ± 0.21 ^b μM^− 1,2.158 ± 0.053,1.97,1.84,1.22 ± 0.053,2.015 ± 0.028,1.48 ± 0.11,1.33 ± 0.11,1.57 ± 0.21,1.99,0.615 ± 0.042,"ΔΔG^o − glycerol heIF4E1b ([2]; change relative to m^7GTP, without glycerol): 1.352 ± 0.039 kcal/mol; ΔΔG^o − glycerol heIF4E1a ([10]; change relative to m^7GTP): 1.658 ± 0.053 kcal/mol; ΔΔG^o + glycerol XeIF4E1a ([5]; change relative to m^7GTP): 1.717 ± 0.033 kcal/mol; ΔΔG^o − glycerol XeIF4E1a ([5]; change relative to m^7GTP): 1.779 ± 0.029 kcal/mol; ΔΔG^o + glycerol XeIF4E1bΔN27 ([11]; change relative to m^7GTP, 10% glycerol): 1.479 ± 0.050 kcal/mol"
Nc1nc2c(c(=O)[nH]1)n(Cc1ccccc1)c[n+]2[C@@H]1O[C@H](COP(=O)(O)OP(=O)(O)O)[C@@H](O)[C@H]1O [bn^7GDP],,35.4 ± 1.6,1.58,0.47,6.04 ± 0.92,10.62 ± 0.98,11.66 ± 0.64,7.09 ± 0.18,9.08 ± 0.33,1.38,4.36 ± 0.18,"Kas X4E1a2 [12]: 8.86 ± 0.16 µM⁻¹; Kas X4E1a1’ [13]: 11.22 ± 0.65 µM⁻¹; Kas X4E1a1 [14]: 9.01 ± 0.21 µM⁻¹; Kas + glycerol X4E1a6 ([8]; 10% glycerol, Fig. 5d): 3.57 ± 0.24 µM⁻¹; fold increase of association constant compared with m^7GDP ([2]; benzyl substitution): approximately 5 fold; ΔΔG^o − glycerol heIF4E1a ([10]; change relative to m^7GDP): 0.033 ± 0.022 kcal/mol; Kas − glycerol heIF4E1a [10]: 16.79 ± 0.56 μM^− 1; ΔΔG^o − glycerol XeIF4E1a ([5]; change relative to m^7GDP): 0.042 ± 0.059 kcal/mol; fold increase of association constant compared with m^7GDP ([11]; benzyl substitution): ~2 fold"
Cn1c[n+]([C@@H]2O[C@H](COP(=O)(O)OP(=O)(O)OP(=O)(O)OP(=O)(O)O)[C@@H](O)[C@H]2O)c2nc(N)[nH]c(=O)c21 [m^7Gp4],,89.6 ± 4.0,1.57,4.68,151.1 ± 8.6,268 ± 10,206 ± 12,143 ± 8,170 ± 24,3.51,43.0 ± 2.0,Kas X4E1a2 [12]: 202.5 ± 6.7 µM⁻¹; Kas X4E1a1’ [13]: 232.5 ± 8.3 µM⁻¹; Kas X4E1a1 [14]: 218 ± 39 µM⁻¹; Kas − glycerol heIF4E1a [10]: 419 ± 23 μM^− 1
Nc1nc2c(c(=O)[nH]1)[n+](Cc1ccc(Cl)cc1)cn2[C@@H]1O[C@H](COP(=O)([O-])O)[C@@H](O)[C@H]1O [p-Cl-bn^7GMP],,,,,,,,,,,,IC50 [6]: 51 µM
"COC1C(O)C(COP(=O)(O)OP(=O)(O)OP(=O)(O)OCC2OC(n3cnc4c(=O)[nH]c(N)nc43)C(O)C2O)OC1n1c[n+](C)c2c(=O)[nH]c(N)nc21 (stereo not drawn) [m^7,2′-OGpppG]",6.13 ± 0.34 ^b μM^− 1,4.63 ± 0.12,,1.32,1.96 ± 0.24,,,,,,,ΔΔG^o + glycerol XeIF4E1a ([5]; change relative to m^7Gp3G): 0.091 ± 0.074 kcal/mol
